As for `CCOCc1nc2c(N)nc3ccccc3c2n1CC1CC(C)=NO1` (stereo not shown) [Example 1, 2-(Ethoxymethyl)-1-[(3-methyl-4,5-dihydroisoxazol-5-yl)methyl]-1H-imidazo[4,5-c]quinolin-4-amine], the melting point lay within 204 to 205 °C.

`CCOCc1nc2c(N)nc3ccccc3c2n1CC1CC(c2ccccc2)=NO1` (stereo not shown) [Example 2, 2-(Ethoxymethyl)-1-[(3-phenyl-4,5-dihydroisoxazol-5-yl)methyl]-1H-imidazo[4,5-c]quinolin-4-amine] registered a melting point of 235 to 237 °C.

`CCOCc1nc2c(N)nc3ccccc3c2n1Cc1cc(-c2ccccc2)no1` [Example 3, 2-(Ethoxymethyl)-1-[(3-phenylisoxazol-5-yl)methyl]-1H-imidazo[4,5-c]quinolin-4-amine] came in with a melting point of 215 to 216 °C.

`CCOCc1nc2c(N)nc3ccccc3c2n1Cc1cc(C)no1` [Example 4, 2-(Ethoxymethyl)-1-[(3-methylisoxazol-5-yl)methyl]-1H-imidazo[4,5-c]quinolin-4-amine] yielded a melting point of 178 to 180 °C.

Regarding `CCOCc1nc2c(N)nc3ccccc3c2n1Cc1cc(-c2cccnc2)no1` [Example 5, 2-(Ethoxymethyl)-1-[(3-pyridin-3-ylisoxazol-5-yl)methyl]-1H-imidazo[4,5-c]quinolin-4-amine], the melting point is 240 to 242 °C.

`CCOCc1nc2c(N)nc3ccccc3c2n1CCCc1cc(-c2cccnc2)no1` [Example 6, 2-(Ethoxymethyl)-1-[3-(3-pyridin-3-ylisoxazol-5-yl)propyl]-1H-imidazo[4,5-c]quinolin-4-amine] gave a melting point of 199 to 200 °C.

In turn, `CCOCc1nc2c(N)nc3ccccc3c2n1CCCc1cc(-c2ccccc2)no1` [Example 7, 2-(Ethoxymethyl)-1-[3-(3-phenylisoxazol-5-yl)propyl]-1H-imidazo[4,5-c]quinolin-4-amine] had a melting point of 171 to 172 °C.

The compound `CCOCc1nc2c(N)nc3ccccc3c2n1CCCc1cc(C)no1` [Example 8, 2-(Ethoxymethyl)-1-[3-(3-methylisoxazol-5-yl)propyl]-1H-imidazo[4,5-c]quinolin-4-amine] registered a melting point of 163 to 164 °C.

The compound `CCOCc1nc2c(N)nc(C)c(C)c2n1Cc1cc(-c2cccnc2)no1` [Example 9, 2-(Ethoxymethyl)-6,7-dimethyl-1-[(3-pyridin-3-ylisoxazol-5-yl)methyl]-1H-imidazo[4,5-c]pyridin-4-amine] had a melting point of 189 to 191 °C.

Turning to `CCOCc1nc2c(N)nc3ccccc3c2n1CCN1C(C)=NOC1(C)C` [Example 10, 2-Ethoxymethyl-1-[2-(3,5,5-trimethyl-1,2,4-oxadiazol-4(5H)-yl)ethyl]-1H-imidazo[4,5-c]quinolin-4-amine], the melting point was in the range of 204 to 205 °C.

Compound `Nc1nc2cccnc2c2c1ncn2Cc1cc(-c2ccc(F)cc2)no1` [Example 11, 1-{[3-(4-Fluorophenyl)isoxazol-5-yl]methyl}-1H-imidazo[4,5-c][1,5]naphthyridin-4-amine] registered a melting point of 265 to 266 °C.

Compound `CCOCc1nc2c(N)nc3cccnc3c2n1Cc1cc(-c2ccc(F)cc2)no1` [Example 12, 2-(Ethoxymethyl)-1-{[3-(4-fluorophenyl)isoxazol-5-yl]methyl}-1H-imidazo[4,5-c][1,5]naphthyridin-4-amine] gave a melting point of 190 to 191 °C.

Compound `Cc1nc2c(N)nc3cccnc3c2n1Cc1cc(-c2ccc(F)cc2)no1` [Example 13, 1-{[3-(4-Fluorophenyl)isoxazol-5-yl]methyl}-2-methyl-1H-imidazo[4,5-c][1,5]naphthyridin-4-amine] registered a melting point of 239 to 240 °C.

In the case of `CCCc1nc2c(N)nc3cccnc3c2n1Cc1cc(-c2ccc(F)cc2)no1` [Example 14, 1-{[3-(4-Fluorophenyl)isoxazol-5-yl]methyl}-2-propyl-1H-imidazo[4,5-c][1,5]naphthyridin-4-amine], the melting point lay within 238 to 239 °C.

Compound `Nc1nc2cccnc2c2c1nc(CO)n2Cc1cc(-c2ccc(F)cc2)no1` [Example 15, (4-Amino-1-{[3-(4-fluorophenyl)isoxazol-5-yl]methyl}-1H-imidazo[4,5-c][1,5]naphthyridin-2-yl)methanol] yielded a melting point of 247 to 248 °C.

In the case of `CCOCc1nc2c(N)nc3ccccc3c2n1CCN1C(C)=NOC12CCCC2` [Example 16, 2-(Ethoxymethyl)-1-[2-(3-methyl-1-oxa-2,4-diazaspiro[4,4]non-2-en-4-yl)ethyl]-1H-imidazo[4,5-c]quinolin-4-amine], the melting point lay in the range of 211 to 213 °C.

Compound `Nc1nc2c(c3c1ncn3Cc1cc(-c3ccc(F)cc3)no1)NCCC2` [Example 17, 1-{[3-(4-Fluorophenyl)isoxazol-5-yl]methyl}-6,7,8,9-tetrahydro-1H-imidazo[4,5-c][1,5]naphthyridin-4-amine] came in with a melting point of 227 to 228 °C.

With `Cc1nc(N)c2ncn(Cc3cc(-c4ccc(F)cc4)no3)c2c1C` [Example 18, 1-{[3-(4-Fluorophenyl)isoxazol-5-yl]methyl}-6,7-dimethyl-1H-imidazo[4,5-c]pyridin-4-amine], the melting point is 244 to 246 °C.

`CCOCc1nc2c(N)nc(C)c(C)c2n1Cc1cc(-c2ccc(F)cc2)no1` [Example 19, 2-(Ethoxymethyl)-1-{[3-(4-fluorophenyl)isoxazol-5-yl]methyl}-6,7-dimethyl-1H-imidazo[4,5-c]pyridin-4-amine] had a melting point of 246 to 247 °C.

For the compound `Cc1nc(N)c2nc(CO)n(Cc3cc(-c4ccc(F)cc4)no3)c2c1C` [Example 20, (4-Amino-1-{[3-(4-fluorophenyl)isoxazol-5-yl]methyl}-6,7-dimethyl-1H-imidazo[4,5-c]pyridin-2-yl)methanol], the melting point was 164 to 165 °C.

As to `CCc1nc2c(N)nc(C)c(C)c2n1Cc1cc(-c2ccc(F)cc2)no1` [Example 21, 2-Ethyl-1-{[3-(4-fluorophenyl)isoxazol-5-yl]methyl}-6,7-dimethyl-1H-imidazo[4,5-c]pyridin-4-amine], the melting point was 255 to 256 °C.

`Cc1nc(N)c2nc(C)n(Cc3cc(-c4ccc(F)cc4)no3)c2c1C` [Example 22, 1-{[3-(4-Fluorophenyl)isoxazol-5-yl]methyl}-2,6,7-trimethyl-1H-imidazo[4,5-c]pyridin-4-amine] registered a melting point of 278 to 279 °C.

Regarding `CCCc1nc2c(N)nc(C)c(C)c2n1Cc1cc(-c2ccc(F)cc2)no1` [Example 23, 1-{[3-(4-Fluorophenyl)isoxazol-5-yl]methyl}-6,7-dimethyl-2-propyl-1H-imidazo[4,5-c]pyridin-4-amine], the melting point was 227 to 229 °C.

`Fc1ccc(-c2cc(Cn3cnc4c(Cl)nc5ccccc5c43)on2)cc1` [Example 24, 4-Chloro-1-{[3-(4-fluorophenyl)isoxazol-5-yl]methyl}-1H-imidazo[4,5-c]quinoline] showed a melting point of 219 to 220 °C.

With `Nc1nc2ccccc2c2c1ncn2Cc1cc(-c2ccc(F)cc2)no1` [Example 25, 1-{[3-(4-Fluorophenyl)isoxazol-5-yl]methyl}-1H-imidazo[4,5-c]quinolin-4-amine], the melting point is 259 to 260 °C.

Turning to `CCc1nc2c(N)nc3ccccc3c2n1Cc1cc(-c2ccc(F)cc2)no1` [Example 26, 2-Ethyl-1-{[3-(4-fluorophenyl)isoxazol-5-yl]methyl}-1H-imidazo[4,5-c]quinolin-4-amine], the melting point lay within 232 to 233 °C.

Take `CCCc1nc2c(N)nc3ccccc3c2n1Cc1cc(-c2ccc(F)cc2)no1` [Example 27, 1-{[3-(4-Fluorophenyl)isoxazol-5-yl]methyl}-2-propyl-1H-imidazo[4,5-c]quinolin-4-amine]: the melting point lay within 226 to 227 °C.

Turning to `Cc1nc2c(N)nc3ccccc3c2n1Cc1cc(-c2ccc(F)cc2)no1` [Example 28, 1-{[3-(4-Fluorophenyl)isoxazol-5-yl]methyl}-2-methyl-1H-imidazo[4,5-c]quinolin-4-amine], the melting point is 294 to 296 °C.

For `CCOCc1nc2c(Cl)nc3ccccc3c2n1Cc1cc(-c2ccc(F)cc2)no1` [Example 29, 4-Chloro-2-(ethoxymethyl)-1-{[3-(4-fluorophenyl)isoxazol-5-yl]methyl}-1H-imidazo[4,5-c]quinoline], the melting point lay in the range of 189 to 190 °C.

`CCOCc1nc2c(N)nc3ccccc3c2n1Cc1cc(-c2ccc(F)cc2)no1` [Example 30, 2-(Ethoxymethyl)-1-{[3-(4-fluorophenyl)isoxazol-5-yl]methyl}-1H-imidazo[4,5-c]quinolin-4-amine] registered a melting point of 203 to 204 °C.

The compound `Nc1nc2ccccc2c2c1nc(CO)n2Cc1cc(-c2ccc(F)cc2)no1` [Example 31, (4-Amino-1-{[3-(4-fluorophenyl)isoxazol-5-yl]methyl}-1H-imidazo[4,5-c]quinolin-2-yl)methanol] registered a melting point of 262 to 263 °C.

As to `Nc1nc2ccccc2c2c1nc(CF)n2Cc1cc(-c2ccc(F)cc2)no1` [Example 32, 2-(Fluoromethyl)-1-{[3-(4-fluorophenyl)isoxazol-5-yl]methyl}-1H-imidazo[4,5-c]quinolin-4-amine], the melting point was in the range of 192 to 193 °C.

`CCOCc1nc2c(N)nc3ccccc3c2n1CCc1cc(-c2ccc(F)cc2)no1` [Example 33, 2-(Ethoxymethyl)-1-{2-[3-(4-fluorophenyl)isoxazol-5-yl]ethyl}-1H-imidazo[4,5-c]quinolin-4-amine] yielded a melting point of 180 to 181 °C.

Compound `CCCc1nc2c(N)nc3ccccc3c2n1CCc1cc(-c2ccc(F)cc2)no1` [Example 34, 1-{2-[3-(4-Fluorophenyl)isoxazol-5-yl]ethyl}-2-propyl-1H-imidazo[4,5-c]quinolin-4-amine] had a melting point of 208 to 209 °C.

As to `CCCCc1cc(Cn2cnc3c(N)nc4ccccc4c32)no1` [Example 35, 1-[(5-Butylisoxazol-3-yl)methyl]-1H-imidazo[4,5-c]quinolin-4-amine], the melting point was 201 to 203 °C.

As to `CCCc1nc2c(N)nc3ccccc3c2n1Cc1cc(-c2cccnc2)on1` [Example 36, 2-Propyl-1-[(5-pyridin-3-ylisoxazol-3-yl)methyl]-1H-imidazo[4,5-c]quinolin-4-amine], the melting point lay within 206 to 207 °C.

In the case of `CCOCc1nc2c(N)nc3ccccc3c2n1Cc1cc(-c2ccccc2)on1` [Example 37, 2-(Ethoxymethyl)-1-[(5-phenylisoxazol-3-yl)methyl]-1H-imidazo[4,5-c]quinolin-4-amine], the melting point was in the range of 221 to 223 °C.

Source of the values: patent US7915281B2, “Isoxazole, dihydroisoxazole, and oxadiazole substituted imidazo ring compounds and method” (3M Innovative Properties Company, priority 2004, dated 2011).
